Assay results taken from the NIST ThermoML archive (doi:10.1016/j.jct.2017.05.001).

Test: wn = mass fraction of the nth substance listed
Details: Liquid; for mass density: Vibrating tube method

CN(C)CCO [2-(N,N-dimethylamino)ethanol] + O
viscosity [mPa·s]
Details	313.15 K	333.15 K
100 kPa, Concentric cylinders viscometry, w1 = 0.1	–	0.623
100 kPa, Concentric cylinders viscometry, w1 = 0.2	–	0.888
100 kPa, Concentric cylinders viscometry, w1 = 0.3	–	1.226
100 kPa, Concentric cylinders viscometry, w1 = 0.4	–	1.671
100 kPa, Falling or rolling sphere viscometry, w1 = 0.1005	–	0.6336
100 kPa, Falling or rolling sphere viscometry, w1 = 0.202	–	0.8725
100 kPa, Falling or rolling sphere viscometry, w1 = 0.3005	–	1.217
100 kPa, Falling or rolling sphere viscometry, w1 = 0.3995	–	1.651
5000 kPa, Falling or rolling sphere viscometry, w1 = 0.1005	–	0.6341
5000 kPa, Falling or rolling sphere viscometry, w1 = 0.202	–	0.877
5000 kPa, Falling or rolling sphere viscometry, w1 = 0.3005	–	1.223
5000 kPa, Falling or rolling sphere viscometry, w1 = 0.3995	–	1.669
10000 kPa, Falling or rolling sphere viscometry, w1 = 0.1005	–	0.6372
10000 kPa, Falling or rolling sphere viscometry, w1 = 0.202	–	0.8862
10000 kPa, Falling or rolling sphere viscometry, w1 = 0.3005	–	1.239
10000 kPa, Falling or rolling sphere viscometry, w1 = 0.3995	–	1.695
15000 kPa, Falling or rolling sphere viscometry, w1 = 0.1005	–	0.6403
15000 kPa, Falling or rolling sphere viscometry, w1 = 0.202	–	0.8907
15000 kPa, Falling or rolling sphere viscometry, w1 = 0.3005	–	1.249
15000 kPa, Falling or rolling sphere viscometry, w1 = 0.3995	–	1.719
20000 kPa, Falling or rolling sphere viscometry, w1 = 0.1005	–	0.6431
20000 kPa, Falling or rolling sphere viscometry, w1 = 0.202	–	0.897
20000 kPa, Falling or rolling sphere viscometry, w1 = 0.3005	–	1.26
20000 kPa, Falling or rolling sphere viscometry, w1 = 0.3995	–	1.742
25000 kPa, Falling or rolling sphere viscometry, w1 = 0.1005	–	0.6461
25000 kPa, Falling or rolling sphere viscometry, w1 = 0.202	–	0.9026
25000 kPa, Falling or rolling sphere viscometry, w1 = 0.3005	–	1.274
25000 kPa, Falling or rolling sphere viscometry, w1 = 0.3995	–	1.765
30000 kPa, Falling or rolling sphere viscometry, w1 = 0.1005	–	0.6477
30000 kPa, Falling or rolling sphere viscometry, w1 = 0.202	1.412	0.9063
30000 kPa, Falling or rolling sphere viscometry, w1 = 0.3005	2.161	1.283
30000 kPa, Falling or rolling sphere viscometry, w1 = 0.3995	3.253	1.789
40000 kPa, Falling or rolling sphere viscometry, w1 = 0.1005	0.957	0.6532
40000 kPa, Falling or rolling sphere viscometry, w1 = 0.202	1.423	0.9178
40000 kPa, Falling or rolling sphere viscometry, w1 = 0.3005	2.197	1.305
40000 kPa, Falling or rolling sphere viscometry, w1 = 0.3995	3.342	1.835
60000 kPa, Falling or rolling sphere viscometry, w1 = 0.1005	0.9672	0.6631
60000 kPa, Falling or rolling sphere viscometry, w1 = 0.202	1.45	0.9397
60000 kPa, Falling or rolling sphere viscometry, w1 = 0.3005	2.273	1.353
60000 kPa, Falling or rolling sphere viscometry, w1 = 0.3995	3.519	1.927
80000 kPa, Falling or rolling sphere viscometry, w1 = 0.1005	0.9775	0.6729
80000 kPa, Falling or rolling sphere viscometry, w1 = 0.202	1.479	0.9613
80000 kPa, Falling or rolling sphere viscometry, w1 = 0.3005	2.348	1.396
80000 kPa, Falling or rolling sphere viscometry, w1 = 0.3995	3.698	2.019
100000 kPa, Falling or rolling sphere viscometry, w1 = 0.1005	0.9881	0.685
100000 kPa, Falling or rolling sphere viscometry, w1 = 0.202	1.508	0.9835
100000 kPa, Falling or rolling sphere viscometry, w1 = 0.3005	2.424	1.442
100000 kPa, Falling or rolling sphere viscometry, w1 = 0.3995	3.881	2.113

mass density [kg/m3]
Details	w1 = 0.1005	w1 = 0.202	w1 = 0.3005	w1 = 0.3995
313.15 K, 30000 kPa	999.4	994.8	990.3	984.4
313.15 K, 40000 kPa	1003.4	998.6	994	988.2
313.15 K, 50000 kPa	1007	1002.1	997.5	991.7
313.15 K, 60000 kPa	1010.8	1005.6	1001	995.3
313.15 K, 70000 kPa	1014.5	1009.1	1004.4	998.7
313.15 K, 80000 kPa	1018	1012.5	1007.6	1002
313.15 K, 90000 kPa	1021.4	1015.7	1010.9	1005.3
313.15 K, 100000 kPa	1024.9	1019.1	1014.1	1008.5
313.15 K, 110000 kPa	1028.3	1022.3	1017.3	1011.7
313.15 K, 120000 kPa	1031.6	1025.6	1020.4	1014.7
313.15 K, 130000 kPa	1035	1028.6	1023.4	1017.7
313.15 K, 140000 kPa	1038.2	1031.7	1026.4	1020.7
333.15 K, 100 kPa	977.4	971.5	965.2	957.4
333.15 K, 500 kPa	977.6	971.8	965.4	957.6
333.15 K, 1000 kPa	977.8	972	965.6	957.9
333.15 K, 2000 kPa	978.2	972.4	966.1	958.3
333.15 K, 5000 kPa	979.5	973.7	967.3	959.6
333.15 K, 10000 kPa	981.5	975.7	969.5	961.8
333.15 K, 15000 kPa	983.6	977.7	971.5	963.9
333.15 K, 20000 kPa	985.6	979.7	973.5	966
333.15 K, 30000 kPa	989.7	983.7	977.5	970.2
333.15 K, 40000 kPa	993.7	987.7	981.5	974.2
333.15 K, 50000 kPa	997.3	991.3	985.2	977.9
333.15 K, 60000 kPa	1001.1	995	988.9	981.7
333.15 K, 70000 kPa	1004.9	998.6	992.5	985.4
333.15 K, 80000 kPa	1008.4	1002.1	996	988.9
333.15 K, 90000 kPa	1012	1005.4	999.2	992.3
333.15 K, 100000 kPa	1015.4	1008.9	1002.7	995.8
333.15 K, 110000 kPa	1018.9	1012.2	1006	999
333.15 K, 120000 kPa	1022.3	1015.5	1009.3	1002.4
333.15 K, 130000 kPa	1025.5	–	–	–
